According to patent publication US20230093766A1, “COMPOSITIONS AND METHODS FOR COATING BONE GRAFTS” (BOARD OF REGENTS OF THE UNIVERSITY OF NEBRASKA, priority 2020, published 2023):

Key:
BMP type I receptor ALK3 = BMP type I receptor ALK3 (Homo sapiens, UniProt P36894); conditions: cited from earlier work
BMP type I receptor ALK6 = BMP type I receptor ALK6 (Homo sapiens, UniProt O00238); conditions: cited from earlier work
BMP type I receptor ALK2 = molecular target: T1, BMP type I receptor ALK2 (Homo sapiens, UniProt Q04771); conditions: cited from earlier work
T1 sequence (Q04771 21-509): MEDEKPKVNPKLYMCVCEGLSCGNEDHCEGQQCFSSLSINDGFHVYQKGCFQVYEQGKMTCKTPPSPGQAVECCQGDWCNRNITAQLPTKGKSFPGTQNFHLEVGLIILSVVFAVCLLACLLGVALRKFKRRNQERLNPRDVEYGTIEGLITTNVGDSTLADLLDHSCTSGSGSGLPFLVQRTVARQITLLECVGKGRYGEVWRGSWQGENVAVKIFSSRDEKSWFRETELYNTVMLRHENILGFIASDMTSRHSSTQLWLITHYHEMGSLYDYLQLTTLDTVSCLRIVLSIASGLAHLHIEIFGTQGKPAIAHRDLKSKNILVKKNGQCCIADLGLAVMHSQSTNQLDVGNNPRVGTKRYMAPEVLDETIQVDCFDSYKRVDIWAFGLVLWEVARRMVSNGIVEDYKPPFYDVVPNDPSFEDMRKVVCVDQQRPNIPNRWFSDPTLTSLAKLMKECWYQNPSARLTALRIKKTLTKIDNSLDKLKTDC

fibrosis in lung = conditions: mouse model; cited from earlier work
[1] = tested on: TGF-β-dependent epithelial-mesenchymal transition (EMT); conditions: cited from earlier work
normal cells and tissues = conditions: cited from earlier work
[2] = tested on: periosteal progenitor cells isolated from autograft periosteum; assay: Osteogenic differentiation of periosteal progenitor cells, BMP-2 in combination with TGF-β inhibitor; format: cell-based
Description: To test the potential reciprocal regulation of both BMP and TGF-β signaling in repair, periosteal progenitor cells were isolated from autograft periosteum (Wang, et al. (2010) Am. J. Pathol., 177:3100-3111; Huang, et al. (2014) Mol. Ther., 22:430-439; Huang, et al. (2014) PLoS One, 9:e100079). The osteogenic differentiation of BMP-2 ([…]) in combination with TGF-β inhibitors was examined. Corilagin (1 μm) potentiated the effects of BMP-2 on osteoblastic differentiation as evidenced by increased alkaline phosphatase (ALP) staining and enhanced expression of ALP and osterix (Osx) in 10-day cultures (FIG. 7).

Tgfbrl/ALK5 kinase = molecular target: T2, Tgfbrl/ALK5 kinase (Homo sapiens, UniProt P36897); conditions: cited from earlier work
T2 sequence (P36897 34-503): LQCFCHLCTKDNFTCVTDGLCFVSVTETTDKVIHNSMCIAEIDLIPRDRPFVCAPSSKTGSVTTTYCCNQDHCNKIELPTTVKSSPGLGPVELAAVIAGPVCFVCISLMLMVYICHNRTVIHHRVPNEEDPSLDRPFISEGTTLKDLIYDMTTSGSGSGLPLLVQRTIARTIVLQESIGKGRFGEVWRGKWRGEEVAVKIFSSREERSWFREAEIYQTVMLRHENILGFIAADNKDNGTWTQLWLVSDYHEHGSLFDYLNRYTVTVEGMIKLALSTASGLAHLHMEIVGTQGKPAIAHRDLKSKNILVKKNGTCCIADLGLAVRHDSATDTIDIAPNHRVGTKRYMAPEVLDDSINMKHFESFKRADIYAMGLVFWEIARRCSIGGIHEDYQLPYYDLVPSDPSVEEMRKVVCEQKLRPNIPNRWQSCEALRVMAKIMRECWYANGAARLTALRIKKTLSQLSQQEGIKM

receptors of BMPs = conditions: cited from earlier work
[3] = BMP-2 peptide loading and in vitro release from electrospray-coated bone allografts; format: physicochemical; conditions: from PLGA 50:50 coated allograft, during the first 4 weeks
Description: For quantification of peptide loading and release kinetics, 5 mg FITC labeled BMP-2 peptide was dispersed in 5% (w/v) of PLGA in DCM in glass vials and used for electrospray-mediated allograft coating. The amount of BMP-2 peptide loaded per graft was calculated from the difference in the weights of the bone samples before and after electrospray coating as well as accounting for the polymer:peptide ratio of 50:1 (Boda, et al. (2019) Acta Biomater., 85:282-93). The duration of the electrospray coating was adjusted to achieve an increase of 2-3 mg in the weights of the electrospray coated bone samples as compared to the corresponding uncoated ones. The FITC-labeled peptide release from the bone allograft was recorded by measuring the fluorescence intensities of the buffer aliquots at regular intervals using excitation and emission filters of 485 and 528 nm, respectively.
Similarly, to measure the peptide loading and release kinetics from PCL-gelatin coated allografts, the PCL-gelatin HFIP solution containing 5 mg FITC labeled BMP-2 peptide was used for coating. PCL-Gelatin (2.5 wt % each) and 5 mg of BMP-2 peptide were mixed by ultrasonication. […] The peptide release from the PCL-gelatin bone allograft was recorded by measuring the fluorescence intensities of the buffer aliquots at regular intervals (Boda, et al. (2019) Acta Biomater., 85:282-93). […]

[4] = Corilagin (1 μm) with BMP-2 (50 μg/ml), 10-day cultures

Sequence of BMP type I receptor ALK3 (P36894 24-532): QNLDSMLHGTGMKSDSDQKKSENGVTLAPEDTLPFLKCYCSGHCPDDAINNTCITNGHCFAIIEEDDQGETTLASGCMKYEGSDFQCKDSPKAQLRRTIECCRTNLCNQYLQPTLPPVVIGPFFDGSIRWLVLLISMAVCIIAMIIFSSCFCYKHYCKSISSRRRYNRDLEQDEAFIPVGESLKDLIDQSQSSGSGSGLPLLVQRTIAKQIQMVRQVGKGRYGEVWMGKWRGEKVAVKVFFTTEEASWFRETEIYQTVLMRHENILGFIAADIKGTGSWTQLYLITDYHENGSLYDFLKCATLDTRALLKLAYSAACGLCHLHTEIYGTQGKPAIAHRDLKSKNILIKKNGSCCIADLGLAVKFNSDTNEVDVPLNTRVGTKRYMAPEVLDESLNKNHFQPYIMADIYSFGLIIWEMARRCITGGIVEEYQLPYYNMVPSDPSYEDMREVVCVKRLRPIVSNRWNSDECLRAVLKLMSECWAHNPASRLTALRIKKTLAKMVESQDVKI
Sequence of BMP type I receptor ALK6 (O00238 14-502): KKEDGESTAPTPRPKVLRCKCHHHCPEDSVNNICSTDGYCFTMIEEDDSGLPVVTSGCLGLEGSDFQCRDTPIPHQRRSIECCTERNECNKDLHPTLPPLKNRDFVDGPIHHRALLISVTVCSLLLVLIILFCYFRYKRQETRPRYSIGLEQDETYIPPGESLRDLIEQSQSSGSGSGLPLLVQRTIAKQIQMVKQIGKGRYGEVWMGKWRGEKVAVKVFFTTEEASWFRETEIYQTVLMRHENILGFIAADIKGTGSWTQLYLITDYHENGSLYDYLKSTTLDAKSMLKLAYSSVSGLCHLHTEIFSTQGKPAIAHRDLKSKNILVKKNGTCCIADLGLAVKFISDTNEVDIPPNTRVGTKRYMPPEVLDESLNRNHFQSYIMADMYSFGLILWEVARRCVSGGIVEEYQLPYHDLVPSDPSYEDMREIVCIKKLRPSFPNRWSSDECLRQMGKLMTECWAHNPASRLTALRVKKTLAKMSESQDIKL

Row | Compound | inhibition of BMP type I receptor ALK3 (BMP type I receptor ALK3) | inhibition of BMP type I receptor ALK6 (BMP type I receptor ALK6) | inhibition of BMP type I receptor ALK2 (BMP type I receptor ALK2) | fibrosis in lung (fibrosis in lung) | TGF-β-dependent epithelial-mesenchymal transition (EMT) [1] | toxicity toward normal cells and tissues (normal cells and tissues) | alkaline phosphatase (ALP) staining [2, 4] | effects of BMP-2 on osteoblastic differentiation [2, 4] | expression of ALP [2, 4] | expression of osterix (Osx) [2, 4] | synergism with BMP-2 ([2]; FIG. 7, ALP and Osx expression after 10 days) | Tgfbrl/ALK5 kinase activity (Tgfbrl/ALK5 kinase) | binding and activation of the receptors of BMPs (receptors of BMPs) | loaded peptide released [3]
1 | O=C(O[C@@H]1O[C@@H]2COC(=O)c3cc(O)c(O)c(O)c3-c3c(cc(O)c(O)c3O)C(=O)O[C@H]([C@H]1O)[C@@H]2O)c1cc(O)c(O)c(O)c1 [Corilagin] | without inhibiting | without inhibiting | without inhibiting | attenuates | inhibits | low level | increased | potentiated | enhanced | enhanced | strong synergism | strongly inhibits | – | –
2 | KIPKASSVPTELSAISTLYL (BMP-2 peptide) [short-chain BMP-2 mimetic peptide (Genscript)] | – | – | – | – | – | – | – | – | – | – | – | – | binds and activates | Nearly all
